In PMC4802308, “Integrating computational and chemical biology tools in the discovery of antiangiogenic small molecule ligands of FGF2 derived from endogenous inhibitors” (Scientific Reports, 2016):

Assays:
[1] = system: FGF2 mitogenic activity; design: method as in PMID 12676958; details: read-out: IC50, inhibition of FGF2 mitogenic activity; cited from earlier work
[2] = target: T1, FGF2 (Homo sapiens, UniProt P09038, A3E/C211S/C229S/S5E); experiment: NMR titration (1H-15N HSQC) of 15N-labeled FGF2; type: binding; details: pH 5.5, 25 °C
T1 construct: purchased ASLA (Riga, Latvia)
T1 sequence (P09038 with tags, fused parts or gaps isoform P09038-2 C78S/C96S limits assumed): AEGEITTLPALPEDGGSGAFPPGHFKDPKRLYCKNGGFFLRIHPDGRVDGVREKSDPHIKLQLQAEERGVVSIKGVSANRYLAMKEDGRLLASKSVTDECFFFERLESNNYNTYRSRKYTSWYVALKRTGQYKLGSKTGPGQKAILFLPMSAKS
Method: In order to investigate whether the functionalized phenylamino-substituted naphthalenes maintained the ability of TSP-1 and SM27 to target the heparin interaction site of FGF2[16][21], interaction studies between SM.1–31 or SM.1–34 (showing the highest activity) and FGF2 were performed by NMR. Each SM was titrated into a solution of ^15N-enriched FGF2 protein and a series of 2D ^1H^15N-HSQC experiments were recorded to follow the protein changes induced by the ligand. […] Residues showing the highest perturbations are Arg129 and Lys144, as previously observed for SM27, pointing to similar interactions that likely involve inhibitors SO3 groups.
NMR samples contained 0.57 mM ^15N-labeled FGF2, dissolved in a buffer containing 50 mM potassium phosphate, 2 mM NaN3, and 10 mM deuterated DTT in 90% H2O/10% D2O, pH 5.5. For the identification of the binding region, SM.1–34 and SM.1–31 were incrementally added to protein solutions up to SM:FGF2 stoichiometric ratio of 3. NMR data were collected on a Bruker DMX 500 MHz spectrometer at 25 °C. 2D ^1H-^15N HSQC spectra were recorded with a sweep width of 13 ppm (^1H) and 40 ppm (^15N). 1k × 128 data points were used in proton and nitrogen dimensions, respectively. Data, acquired and processed using Topspin (Bruker Biospin), were apodized with a squared sinebell shifted by 90° and polynomial baseline correction. […]

[3] = system: BAEC; experiment: FGF2-induced endothelial cell proliferation assay; type: cell-based, Bovine; details: FGF2 5 ng/ml, 72 h
Method: (§1) Figure 4 Biological activity of the selected hits. (A) Endothelial cell proliferation. BAEC were exposed to FGF2 (5 ng/ml) with increasing concentrations of molecules (3–80 μM). After 72 h, cells were stained and proliferation measured as absorbance. Data are the percentage of control proliferation (in absence of molecules), mean of value from 2 experiments performed in triplicate. (B–D) Aortic ring assay. Sections of murine aortas were embedded in Matrigel, in the presence of FGF2 (30 ng/ml) and the indicated small molecule. The formation of capillary structures sprouting from the rings was analyzed after 7 and 11 days as described in Methods, and the angiogenic response expressed as area covered by the sprouting structures (arbitrary units, mean and SE, n ≥ 6). (B) Antiangiogenic activity of the small molecules (100 μM). (C) Examples of time-dependent and dose-dependent effect of two compounds (SM.2–20 and SM.2–23), tested at 100 (diamond), 50 (circle) and 25 μM (triangle) compared to control (black squares). (D) Representative pictures of sprouting from control and SM.2–23 treated aortic sections. […] (E) Angiogenic response is evaluated 4 days later, and expressed as number of vessels entering the sponge (mean and SD). […]
BAEC (2500 cells/well) were plated in 96-well plates in DMEM 1.5% FCS. […] Plates were then stained with crystal violet or MTS and analyzed as described.

[4] = target: T2, FGF2 (Homo sapiens, UniProt P09038); experiment: Competition with biotinylated recombinant TSP-1 domain (E123CaG1) for binding to FGF2 (DELFIA); details: Fig. 6B
T2 construct: purchased R&D Systems, obtained through the NCI-Biological Resources Branch
T2 sequence (P09038 134-288 limits assumed): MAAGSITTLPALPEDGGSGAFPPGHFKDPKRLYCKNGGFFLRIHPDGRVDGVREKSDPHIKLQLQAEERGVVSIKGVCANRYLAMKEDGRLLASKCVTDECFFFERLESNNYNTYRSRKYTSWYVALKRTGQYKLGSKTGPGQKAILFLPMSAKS
Description: Of the identified hits, 23 (Fig. 1 and Suppl. Table S1), made available from the NCI (NIH), were subjected to experimental analysis of FGF2 binding. We used an indirect assay, based on the competition of the tested molecules with the recombinant TSP-1 type III domain for binding to FGF2, an approach previously employed to analyze the FGF2/SM27 binding.
Figure 2 FGF2-binding property of the selected hits, analyzed with an indirect assay, as ability to compete with the TSP-1 fragment E123CaG1 (comprising the type III repeats domain) for FGF2 binding, as described in Methods. Binding of the biotinylated recombinant domain to FGF2 in the presence or absence of each molecule (5 μM). Data are the percentage of control binding, mean and SE of 3 experiments performed in triplicate. *p < 0.05 compared to control (ANOVA followed by Bonferroni test).
DELFIA® Microtitration plates and reagents were from PerkinElmer. Plates were coated overnight at 4 °C with FGF2 (0.1 μg in 40 μl /well PBS). After washing, non-specific binding sites were saturated by a 30 minute incubation with PBS 1% BSA. The biotin-labeled recombinant TSP-1 fragment (10 nM) was added in 40 μl PBS 1% BSA with or without the indicated concentration of small molecules, and incubated for 3 h at room temperature. The plates were washed with PBS 0.1% BSA and incubated for 1 h with 100 μl/well Eu-Labeled Streptavidin 1:1000 at room temperature. After washing, plates were incubated with DELFIA® Enhancement Solution. Time resolved fluorescence was measured using a Victor[3] multilabel plate reader (PerkinElmer).

[5] = system: FGF2-induced angiogenesis; experiment: Chorioallantoic membrane (CAM) assay; type: in vivo, White Leghorn chicken; details: FGF2 200 ng, compound 0.5 μg
Method: as §1, with “μM).” for “μM). (C) Examples of time-dependent and dose-dependent effect of two compounds (SM.2–20 and SM.2–23), tested at 100 (diamond), 50 (circle) and 25 μM (triangle) compared to control (black squares). (D) Representative pictures of sprouting from control and SM.2–23 treated aortic sections.”
Fertilized White Leghorn chicken eggs were incubated at 37 °C at constant humidity. […] At day 12, CAMs were photographed in ovo under a stereomicroscope (Olympus), and blood vessels entering the sponge within the focal plane of the CAM were counted by two observers in double blind.

[6] = target: T2, FGF2; experiment: Competition with biotinylated recombinant TSP-1 domain (E123CaG1) for binding to FGF2 (DELFIA); details: for IC50: mean ± SE of 3 experiments; for fold more active than the initial query SM27 (competition IC50): vs SM27
[7] = target: T2, FGF2; experiment: SPR direct binding to sensorchip-immobilized FGF2; details: single site model, one experiment representative of two, read-out: Kd (dissociation constant) of FGF2/compound interaction
Method: SPR measurements were performed on a BIAcore X100 instrument (GE-Healthcare, WI). FGF2 was immobilized on a CM5 sensorchip (GE-Healthcare) as described, allowing the immobilization of 7,365 resonance units (RU) (410 fmol/mm^2 of FGF-2).
Suppl. Table S2. Determination of the affinity (Kd) of the FGF2/compound interactions by
Binding parameters were calculated by the non-linear curve fitting software package BIAevaluation
3.2 using a single site model with correction for mass transfer. Dissociation constant (Kd) values
were derived from the dissociation rate/association ratio. Only sensorgrams whose fitting gave
values of X2 lower than 10 were used {Khalifa, 2001 #213}.

[8] = system: FGF2-induced vessels sprouting, murine aortic rings; experiment: Aortic rings assay (FGF2-induced vessels sprouting, 3D Matrigel); design: species or system C57BL/6 mice; details: FGF2 30 ng/ml, small molecules 100 μM
Method: Figure 4 Biological activity of the selected hits. (A) Endothelial cell proliferation. BAEC were exposed to FGF2 (5 ng/ml) with increasing concentrations of molecules (3–80 μM). After 72 h, cells were stained and proliferation measured as absorbance. Data are the percentage of control proliferation (in absence of molecules), mean of value from 2 experiments performed in triplicate. (B–D) Aortic ring assay. Sections of murine aortas were embedded in Matrigel, in the presence of FGF2 (30 ng/ml) and the indicated small molecule. The formation of capillary structures sprouting from the rings was analyzed after 7 and 11 days as described in Methods, and the angiogenic response expressed as area covered by the sprouting structures (arbitrary units, mean and SE, n ≥ 6). (B) Antiangiogenic activity of the small molecules (100 μM). (C) Examples of time-dependent and dose-dependent effect of two compounds (SM.2–20 and SM.2–23), tested at 100 (diamond), 50 (circle) and 25 μM (triangle) compared to control (black squares). (D) Representative pictures of sprouting from control and SM.2–23 treated aortic sections. Original magnification, 20x. (E,F) Chorioallantoic membrane assay. FGF2 (200 ng) was administered in the absence or presence of the indicated compound (0.5 μg) on day 8 (n = 10). (E) Angiogenic response is evaluated 4 days later, and expressed as number of vessels entering the sponge (mean and SD). (F) Representative pictures are shown. Original magnification, 50x.
Thoracic aortas were removed from mice, cleaned of perivascular adipose tissue and cut into 1 mm segments. Matrigel (75 μl, BD Biosciences) was added to 96 well plates, and allowed to gellify at 37 °C for 30 min. Aortic sections were added to the wells, and covered with a second layer of Matrigel and DMEM 5% FCS containing FGF2 (30 ng/ml) and the indicated concentration of the compounds. The formation of capillary structures sprouting from the rings was analyzed after 4, 7 and 11 days with an inverted-phase contrast microscope (IX70; Olympus). Images were analyzed with ImageJ 1.48, and the angiogenic response expressed as area covered by the sprouting structures (arbitrary units), substracted the area of the aortic section.

Row | SMILES | affinity for FGF2 indicated by NMR titration [2] | ability to bind FGF2 in the competition assay (phenylamino-substituted naphthalenes) [4] | IC50 [6] [nM] | fold more active than the initial query SM27 (competition IC50) [6] | inhibition of FGF2-induced endothelial cell proliferation (antiproliferative activity) [3] | inhibition of FGF2-induced angiogenesis in the CAM assay [5] | other results
1 | Nc1cccc2cc(S(=O)(=O)O)ccc12 [5-amino-2-naphthalenesulfonate] |  |  |  |  |  |  | IC50 [1]: 265000 nM
2 | O=S(=O)([O-])c1cc(S(=O)(=O)[O-])c2ccc(Nc3ccccc3)cc2c1O.[Na+].[Na+] [SM.1–34, sodium 4-hydroxy-6-(phenylamino)naphthalene-1,3-disulfonate] | high micromolar range | most active |  |  |  |  | 
3 | Nc1cccc(/N=N/c2c(S(=O)(=O)O)cc3cc(NC(=O)Nc4ccc5c(O)c(/N=N/c6cccc(N)c6)c(S(=O)(=O)O)cc5c4)ccc3c2O)c1 [SM.2–18, 3-((E)-(3-aminophenyl)diazenyl)-7-(3-(6-((E)-(3-aminophenyl)diazenyl)-5-hydroxy-7-sulfonaphthalen-2-yl)ureido)-4-hydroxynaphthalene-2-sulfonic acid] |  |  | 610 ± 60 | 6–11 fold |  | active | 
4 | Cc1ccc(C)c(/N=N/c2c(S(=O)(=O)O)cc3cc(NC(=O)Nc4ccc5c(O)c(/N=N/c6ccc7cc(S(=O)(=O)O)ccc7c6)c(S(=O)(=O)O)cc5c4)ccc3c2O)c1 [SM.2–24, 3-((E)-(2,5-dimethylphenyl)diazenyl)-4-hydroxy-7-(3-(5-hydroxy-7-sulfo-6-((E)-(6-sulfonaphthalen-2-yl)diazenyl)naphthalen-2-yl)ureido)naphthalene-2-sulfonic acid] |  |  | 460 ± 100 | 6–11 fold |  | active | Kd [7]: 111 nM; inhibition of FGF2-induced vessels sprouting [8]: significantly inhibited

Now from value to compound, other results behind:

Row | affinity for FGF2 indicated by NMR titration [2] | ability to bind FGF2 in the competition assay (phenylamino-substituted naphthalenes) [4] | IC50 [6] [nM] | fold more active than the initial query SM27 (competition IC50) [6] | SMILES | inhibition of FGF2-induced endothelial cell proliferation (antiproliferative activity) [3] | inhibition of FGF2-induced angiogenesis in the CAM assay [5] | other results
5 | high micromolar range | most active |  |  | O=S(=O)([O-])c1cccc2cc(Nc3ccccc3)ccc12.[Na+] [SM.1–31, sodium 6-(phenylamino)naphthalene-1-sulfonate] | increased activity |  | 
6 |  | inactive |  |  | Oc1cccc2ccc(Nc3ccccc3)cc12 [SM.1–33, 8-hydroxy-N-phenylanaphthalen-2-aminium chloride] | significant loss of activity |  | 
